Measured values reported in patent EP3655424B1, “PEPTIDES MODULATING SPERM MOTILITY BY MODULATING THE PHOSPHOPROTEIN PHOSPHATASE 1 COMPLEX” (University of Wolverhampton, priority 2017, dated 2021).
Where two headings read alike, the source gives them in different places.

Assays:
bovine spermatozoa [1] = assay: Motility assay (Sperm Class Analyzer CASA System), bovine sperm; type: cell-based; conditions: for concentration-dependent effect on motility parameters: 10 µM versus 20 µM
Protocol: (§1) This study was approved by the Ethics and Internal Review Board of the Hospital Infante D. Pedro E.P.E. (Aveiro, Portugal) and was conducted in accordance with the ethical standards of the Helsinki Declaration. Human semen samples were obtained from a randomized group of donors, by masturbation to a sterile container. All donors signed informed consent allowing the samples to be used for scientific purposes. Basic semen analysis was performed according to World Health Organization (WHO) guidelines. Fresh semen from Holstein Frisian bulls was obtained from LusoGenes, LDA (Aveiro, Portugal). Semen was collected by artificial vagina and assessed by a certified veterinarian. Human and bovine spermatozoa were isolated and washed from seminal plasma by centrifugation (800 g for 5 min, 3 times) using ALLGrade Wash medium (LifeGlobal, Brussels, Belgium). Spermatozoa pellets were resuspended in medium to a final concentration of 20x10^6 cells/0.5 mL and incubated at 37°C with 5 % CO2 until the appropriated treatments were added.
(§2) Peptides (PPP1CC2-CT, TAMRA-PPP1CC2-CT, AKAP4 and AKAP4 M) were added to bovine and human sperm samples in total volume of 500 µl containing approximately 2 x10^7 sperm cells per well. Control samples included sperm cells in medium alone. The influence of bioportides on sperm motility parameters was assessed using the Sperm Class Analyzer CASA System (Microptic S L, Barcelona, Spain) with SCA® v5.4 software. Samples and controls (2 µl) were loaded into individual chambers of Leja Standrat Count 8 chamber slide 20 µm depth (Leja Products B. V., The Netherlands) which were pre-heated at 37 °C. This temperature was maintained while at least 1000 sperm cells/per measurement were evaluated. Each peptide was tested on samples from 3 individual donors and all the conditions were performed in triplicate.
(§3) Bovine and human spermatozoa were exposed to different extracellular peptide concentrations (10 and 20 µM) and motility parameters were assessed at 1 and 2 h. For reference, negative controls were performed in the absence of peptides.

human spermatozoa [2] = assay: Motility assay (Sperm Class Analyzer CASA System), human sperm; type: cell-based; conditions: for motility parameters / immotile spermatozoa increased (printed: mean decrease) / mean decrease in fast progressive motility / mean decrease in non-progressive motility / mean decrease in slow progressive motility: human spermatozoa; for immotile spermatozoa increased (printed: mean decrease) / mean decrease in fast progressive motility / mean decrease in non-progressive motility / mean decrease in slow progressive motility: 20 µM
Protocol: as §1, §2, §3

bovine spermatozoa [3] = assay: Intracellular accumulation / quantitative translocation of TAMRA-labelled peptides, bovine sperm; type: cell-based
Protocol: (§4) Isolated bovine and human spermatozoa (4 x10^7 cells) were suspended and incubated with 10 µM TAMRA-labeled peptides for 1 h at 37 °C in a humidified atmosphere of 95% air/5 % CO2. Cells were then washed three times (800 g for 5 min) in ALLGrade Wash medium (LigeGlobal, Brussels, Belgium). To confirm if the fluorescently labeled peptides were not merely surface associated, the sperm cell population was divided in two and a trypsin incubation was used to remove any surface associated peptides. In summary, half of the cells were set aside (2 x10^7 cells) and fixed in 4 % paraformaldehyde (PFA) for 20 min. The other half was incubated with 1 % (wt/vol) trypsin at 37 °C, collected by centrifugation at 3000 g, washed in ALLGrade Wash medium (LigeGlobal, Brussels, Belgium) and resuspended in 4 % PFA 20 min. Fixed cells from each preparation were spread into coverslips and allowed to air dry. After mounting, slides were assessed by fluorescence microscopy (Imager.Z1, Axio-Cam HRm camera and AxioVision software, Zeiss, Jena, Germany). Translocation efficacies of CPP-mediated intracellular delivery of the peptides sequences were determined by the quantitative uptake analysis of fluorescently labeled moieties^[3]. Isolated bovine and human spermatozoa were incubated with 10 µM TAMRA-labeled peptides for 1 h at 37 °C in a humidified atmosphere of 5 % CO2. Cells were then washed four times with PBS, detached with 1 % (w/v) trypsin at 37 °C, collected by centrifugation at 3000 g and lysed in 300 µl 0.1 M NaOH for 2 h on ice. 250 µl of each sample cell lysate were transferred to a black 96-well plate, and analyzed using an Infinite® 200 PRO (Tecan, Switzerland) (λAbs 544 nm/λEm 590 nm).

human spermatozoa [4] = assay: Intracellular accumulation / quantitative translocation of TAMRA-labelled peptides, human sperm; type: cell-based
Protocol: as §4, with “Isolated bovine and human spermatozoa (4 x10^7 cells) were suspended and incubated with 10 µM TAMRA-labeled peptides for 1 h at 37 °C in a humidified atmosphere of 95% air/5 % CO2.” left out, “Isolated bovine and human spermatozoa were incubated with 10 µM TAMRA-labeled peptides for 1 h at 37 °C in a humidified atmosphere of 5 % CO2.” left out

bovine spermatozoa [5] = type: cell-based
Protocol: Bovine spermatozoa viability was evaluated using the trypan blue viability test according to manufacturer's guidelines. Human spermatozoa viability was measured using the CellTiter 96® AQueous Non-Radioactive Cell Proliferation Assay (Promega, Madison, USA) according to manufacturer's guidelines.

PPP1CC2-AKAP4 complex = assay: Disruption of PPP1CC2-AKAP4 complex purified from human sperm (Figure 6B); type: binding; conditions: co-incubation, AKAP4-BM at 10 µM
Protocol: To establish that the detected fluorescence was not attributed to surface-associated peptide, isolated sperm cells were incubated for 1h with 10µM TAMRA-labelled peptide and subsequently treated with 1% (w/v) trypsin to remove any peptide bound to the surface of spermatozoa. Negative controls without the TAMRA-labelled peptides were performed and presented no reactivity. Images are representative from three independent experiments. Lower panel (right): Quantitative analyses of peptide translocation into bovine and human spermatozoa. Bovine and human spermatozoa were incubated with TAMRA-labelled bioportides (10µM) for 1 h at 37°C. Data are expressed as fluorescence (minus negative control). Three independent experiments were performed in quadruplicate. […] Graph bars represent the mean values of three independent experiments performed in triplicate. Error bars 95% CI. […] Graph bars represent the mean values of three independent experiments performed in triplicate. Error bars 95% CI. […] Images are representative from 3 independent experiments. […] A PPP1CC2-AKAP4 complex was purified from human sperm (Lane 1, left). […] 12, a PPP1 inhibitor, was used as a positive control and, as expected, also decreases the interaction (lane 4). […]

[6] = 10 µM, 1h, compared with negative control
[7] = 10 µM, 2h, compared with AKAP4-BM M
[8] = 10 µM, 2h, compared with negative control
[9] = 20 µM, 1h, compared with AKAP4-BM M
[10] = 20 µM, 1h, compared with negative control
[11] = 20 µM, 2h, compared with AKAP4-BM M
[12] = 20 µM, 2h, compared with negative control
[13] = 1h, compared with negative control
[14] = 2h, compared with negative control

AKAP4-BM M: mutated homologue (GQQDQDRAAAAAVDVSTLNV) of AKAP4-BM coupled to the Penetratin CPP, used as a control [reference compound]
motility parameters (bovine spermatozoa [1]; compared with negative control, two exceptions: fast progressive motility at 1h with 20 µM, immotile spermatozoa with 10 µM at 1h): did not lead to significant differences
motility parameters (human spermatozoa [2]; compared with negative control, one exception: fast progressive motility at 2h with 20 µM): did not lead to significant differences
internalization (microscopic analyses) (bovine spermatozoa [3]; bovine spermatozoa, 10 µM TAMRA-labelled peptide, 1 h, 37 °C, trypsin treated): internalized less efficiently
intracellular accumulation of red fluorescent (TAMRA) analogues (human spermatozoa [4]; human spermatozoa, 5 µM, Figure 6A): accumulate within normal healthy human spermatozoa
internalization (microscopic analyses) (human spermatozoa [4]; human spermatozoa, 10 µM TAMRA-labelled peptide, 1 h, 37 °C, trypsin treated): internalized less efficiently

GQQDQDRKVICFVDVSTLNVRQIKIWFQNRRMKWKK [AKAP4-BM]
concentration-dependent effect on motility parameters (bovine spermatozoa [1]): concentration-dependent effect
mean decrease in fast progressive motility (bovine spermatozoa [1]; 10 µM, 1h, compared with AKAP4-BM M): 41.9 ± 20.0%
mean decrease in fast progressive motility (bovine spermatozoa [1]; [6]): 49.8 ± 22.5%
mean decrease in fast progressive motility (bovine spermatozoa [1]; [7]): 43.9 ± 15.3%
mean decrease in slow progressive motility (bovine spermatozoa [1]; [7]): 21.6 ± 64.4%
mean decrease in fast progressive motility (bovine spermatozoa [1]; [8]): 50.5 ± 9.7%
mean decrease in slow progressive motility (bovine spermatozoa [1]; [8]): 42.4 ± 20.4%
mean decrease in fast progressive motility (bovine spermatozoa [1]; [9]): 95.0 ± 6.5%
mean decrease in non-progressive motility (bovine spermatozoa [1]; [9]): 63.1 ± 8.3%
immotile spermatozoa, mean increase (bovine spermatozoa [1]; [10]): 91.8 ± 25.4%
mean decrease in non-progressive motility (bovine spermatozoa [1]; [10]): 50.0 ± 10.9%
mean decrease in slow progressive motility (bovine spermatozoa [1]; [10]): 95.3 ± 4.8%
mean decrease in fast progressive motility (bovine spermatozoa [1]; [11]): 98,4 ± 2,6%
mean decrease in non-progressive motility (bovine spermatozoa [1]; [11]): 63.0 ± 7.5%
mean decrease in slow progressive motility (bovine spermatozoa [1]; [11]): 94.1 ± 4.9%
immotile spermatozoa, mean increase (bovine spermatozoa [1]; [12]): 183.7 ± 88.4%
mean decrease in fast progressive motility (bovine spermatozoa [1]; [12]): 98.6 ± 2.9%
mean decrease in slow progressive motility (bovine spermatozoa [1]; [12]): 94.2 ± 4.8%
progressive motility (human spermatozoa [2]; human sperm, Figure 6C left panel): statistically significant decrease in progressive motility
percentage of immotile spermatozoa (human spermatozoa [2]; human sperm, Figure 6C middle panel): corresponding increase in the percentage of immotile spermatozoa
immotile spermatozoa increased (printed: mean decrease) (human spermatozoa [2]; 1h, compared with AKAP4-BM M): 47.3 ± 19.2%
mean decrease in fast progressive motility (human spermatozoa [2]; 1h, compared with AKAP4-BM M): 87.0 ± 4.3%
mean decrease in non-progressive motility (human spermatozoa [2]; 1h, compared with AKAP4-BM M): 43.4 ± 24.8%
mean decrease in slow progressive motility (human spermatozoa [2]; 1h, compared with AKAP4-BM M): 85.1 ± 5.2%
immotile spermatozoa increased (printed: mean decrease) (human spermatozoa [2]; [13]): 63.0 ± 27.8%
mean decrease in fast progressive motility (human spermatozoa [2]; [13]): 49.8 ± 22.5%
mean decrease in non-progressive motility (human spermatozoa [2]; [13]): 31.0 ± 26.9%
mean decrease in slow progressive motility (human spermatozoa [2]; [13]): 87,6 ± 5,2%
immotile spermatozoa increased (printed: mean decrease) (human spermatozoa [2]; 2h, compared with AKAP4-BM M): 41.9 ± 14.7%
mean decrease in fast progressive motility (human spermatozoa [2]; 2h, compared with AKAP4-BM M): 82.7 ± 20.7%
mean decrease in non-progressive motility (human spermatozoa [2]; 2h, compared with AKAP4-BM M): 50.6 ± 21.0%
mean decrease in slow progressive motility (human spermatozoa [2]; 2h, compared with AKAP4-BM M): 82.3 ± 11.5%
immotile spermatozoa increased (printed: mean decrease) (human spermatozoa [2]; [14]): 74.5 ± 28.3%
mean decrease in fast progressive motility (human spermatozoa [2]; [14]): 50.5 ± 9.7%
mean decrease in non-progressive motility (human spermatozoa [2]; [14]): 58.6 ± 16.1%
mean decrease in slow progressive motility (human spermatozoa [2]; [14]): 85,7 ± 8,7%
percentage of viable spermatozoa (bovine spermatozoa [5]): slight decrease
internalization (microscopic analyses) (bovine spermatozoa [3]): internalized very efficiently
internalization (microscopic analyses) (human spermatozoa [4]): internalized very efficiently
interaction between PPP1CC2 and AKAP4 (PPP1CC2-AKAP4 complex): disrupts the PPP1CC2-AKAP4 complex

RQIKIWFQNRRMKWKKKPNATRPVTPPRVASGLNPSIQKASNYRNNTVLY (H-RQIKIWFQNRRMKWKKKPNATRPVTPPRVASGLNPSIQKASNYRNNTVLY-NH2) [PPP1CC2-CT]
concentration-dependent effect on motility parameters (bovine spermatozoa [1]): no concentration-dependent effect
immotile spermatozoa, mean increase (bovine spermatozoa [1]; [6]): 72.5 ± 33.6%
mean decrease in fast progressive motility (bovine spermatozoa [1]; [6]): 55.9 ± 19.4%
mean decrease in slow progressive motility (bovine spermatozoa [1]; [6]): 49.9 ± 41%
immotile spermatozoa, mean increase (bovine spermatozoa [1]; [8]): 128.3 ± 85.3%
mean decrease in fast progressive motility (bovine spermatozoa [1]; [8]): 53.9 ± 19.9%
mean decrease in slow progressive motility (bovine spermatozoa [1]; [8]): 17.4 ± 57%
immotile spermatozoa, mean increase (bovine spermatozoa [1]; [10]): 86.2 ± 72.3%
mean decrease in fast progressive motility (bovine spermatozoa [1]; [10]): 64.2 ± 8.3%
mean decrease in slow progressive motility (bovine spermatozoa [1]; [10]): 31.4 ± 35%
mean decrease in fast progressive motility (bovine spermatozoa [1]; [12]): 44.6 ± 9.7%
non-progressive motility (bovine spermatozoa [1]; 10 and 20 µM, 1 and 2 h, Figure 3): No significant alterations
motility parameters (human spermatozoa [2]; 10 µM): did not induce any significant alterations
mean decrease in fast progressive motility (human spermatozoa [2]; [14]): 34.5 ± 12.3%
internalization (microscopic analyses) (bovine spermatozoa [3]): internalized very efficiently
internalization (microscopic analyses) (human spermatozoa [4]): internalized very efficiently
